Measurements from PubChem BioAssay AID2060909 (Molecular Pharmacology Branch, DTP, NCI, 2025).

Test system: 362531-283-R-J2-PDC complex spheroid viability
Assay: Anticancer human tumor 362531-283-R-J2-PDC patient-derived colon adenocarcinoma cell line growth inhibition [RAS]
Conditions: for IC50: curve of first compound; for viability, T/C: stronger effect = lower value
Excerpt: RAS pathway inhibitors in Combinations in Complex Spheroids
A high-throughput screen of multi-cell type tumor spheroids was designed to identify active combinations of RAS pathway inhibitors and targeted small molecules. Complex spheroids include a stromal component modeled by human endothelial cells (HUVEC) and fibroblasts modeled by human mesenchymal stem cells (MSCs). The concentration ranges selected for each drug and investigational agent were based upon clinically achievable concentrations if the clinical Cmax of the agent was known.
Compounds. The drugs and investigational agents: abemaciclib (NSC768073), cobimetinib (NSC768068), divarasib (GDC6063, NSC841802), docetaxel (NSC628503), GDC-1971 (RLY-1971, NSC841576), gemcitabine (NSC613327), inavolisib (NSC800729), ipatasertib (NSC767898), KB-0742 (NSC834161), MRTX-1133 (NSC836407), osimertinib (NSC779217), RMC-4630 (NSC839698), RMC-6236 (NSC851965), RMC-6291 (NSC852671), Ro-3306 (NSC812927), sapanisertib (NSC764658), SN-38 (NSC673596), staurosporine (NSC755774), SY5609 (NSC837396), and tovorafenib (DAY101, NSC766906), were obtained from the National Cancer Institute (NCI) Developmental Therapeutics Program Chemical Repository. The FDA-approved anticancer drug set is available from the NCI Developmental Therapeutics Program. […] The stock solutions were prepared in dimethyl sulfoxide (DMSO, Sigma-Aldrich, St. Louis, MO, cat. D2650) at 800-fold the tested concentration and stored at -70 degrees C prior to their use. All drugs and investigational agents were tested over a range starting from a high concentration at or near the clinical Cmax and decreasing in half-log increments. If the clinical Cmax for an agent had not been determined, the highest concentration tested was 10 microM.
Cell Culture. All cells were maintained in an incubator at 37 degrees C and 5% CO2 with 95% humidity. The PDC lines were cultured according to standard operating procedures established by the NCI PDMR. All PDCs were thawed and cultured in Matrigel-coated flasks prepared with a working solution of 1X Ham's F-12 nutrient mix, without supplementation (Invitrogen, Waltham, MA, cat. 11765054), 100 U/mL penicillin-streptomycin (Invitrogen, cat. 15140122), and 2.5% Matrigel (Corning Inc., Corning, NY, cat. 354248) for the first three passages. The 362531-283-R-J2-PDC and 782815-120-R-J1-PDC lines were cultured in 6C/Colon 1B media, which includes advanced DMEM/F-12 (Thermo Fisher Scientific, cat. 12634028), 10 mM HEPES (Thermo Fisher Scientific, cat. 15630080), 1X GlutaMAX supplement (Thermo Fisher Scientific, cat. 35050061), 0.1 mg/mL primocin (InvivoGen, San Diego, CA, cat. ant-pm-2), 10% defined fetal bovine serum, heat inactivated (HyClone Laboratories Inc., Logan, UT, cat. SH30070.03HI), 50% L-WRN conditioned media (ATCC, cat. CRL-3276), 1.25 mM N-Acetyl-L-cysteine (Sigma-Aldrich, cat. A9165), 10 mM nicotinamide (Sigma-Aldrich, cat. N0636), 1X B-27 supplement (Thermo Fisher Scientific, cat. 17504044), 1X N-2 supplement (Thermo Fisher Scientific, cat. 17502048), 50 ng/mL human EGF (Thermo Fisher Scientific, cat. PHG0311), and 10 microM Y-27632 dihydrochloride (Tocris Bioscience, cat. 1254). The K12877-001-R-J1-PDC line was cultured in 6I media, which includes all 6C/Colon 1B media plus 10 ng/mL human FGF-10 (PeproTech, cat. 100-26), 1 ng/mL human FGF-2 (PeproTech, cat. 100-18B), 1 µM prostaglandin E2 (Tocris Bioscience, cat. 2296), […] hydrocortisone (Sigma-Aldrich, cat. H4001), and […] bovine insulin (Sigma-Aldrich, cat. I6634). The K86415-001-R-J1-PDC line was cultured in 6D media, which includes all 6C/Colon 1B media components minus the L-WRN conditioned media. The 485176-168-R4-J1-PDC was cultured in PANC media, which includes all 6C/Colon 1B media plus 100 ng/mL human FGF-10 (PeproTech, cat. 100-26), 500 nM SB-431542 (Selleckchem, cat. S1067), and 10 nM gastrin (Tocris Bioscience, cat. 3006). […]

[1] = second compound 0.0316 µM, first compound 0.0316 µM
[2] = second compound 0.0316 µM, first compound 0.1 µM
[3] = second compound 0.1 µM, first compound 0.0316 µM
[4] = second compound 0.1 µM, first compound 0.1 µM
[5] = second compound 0.316 µM, first compound 0.0316 µM
[6] = second compound 0.316 µM, first compound 0.1 µM
[7] = second compound 1 µM, first compound 0.0316 µM
[8] = second compound 1 µM, first compound 0.1 µM
[9] = second compound 3.16 µM, first compound 0.0316 µM
[10] = second compound 3.16 µM, first compound 0.1 µM
[11] = second compound 10 µM, first compound 0.0316 µM
[12] = second compound 10 µM, first compound 0.1 µM
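Also: spheroids exposed to the agents for 7 days before readout.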
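For viability, T/C in this document: luminescence viability as percent of DMSO vehicle control wells.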

Q: With `CC(C)NCC(C(=O)N1CCN(c2ncnc3c2C(C)CC3O)CC1)c1ccc(Cl)cc1` (centres undefined) + C#Cc1c(F)ccc2cc(O)cc(-c3ncc4c(N5CC6CCC(C5)N6)nc(OCC56CCCN5CC(F)C6)nc4c3F)c12 as the compound, how does the IC50 (second compound 0.0316 µM) read?
A: > 10000 nM

Q: And the IC50 (second compound 0.1 µM)?
A: > 10000 nM

Q: What about the IC50 (second compound 0.316 µM) of the same compound?
A: > 10000 nM

Q: What about the IC50 (second compound 1 µM) of the same compound?
A: > 10000 nM

Q: And the IC50 (second compound 3.16 µM)?
A: > 10000 nM

Q: And the IC50 (second compound 10 µM)?
A: < 31.6 nM

Q: What about the viability, T/C [1] of the same compound?
A: 98.4%

Q: And the viability, T/C [2]?
A: 100%

Q: What about the viability, T/C (second compound 0.0316 µM, first compound 0.316 µM) of the same compound?
A: 89.4%

Q: What about the viability, T/C (second compound 0.0316 µM, first compound 1 µM) of the same compound?
A: 102%

Q: What about the viability, T/C (second compound 0.0316 µM, first compound 3.16 µM) of the same compound?
A: 96.7%

Q: What about the viability, T/C (second compound 0.0316 µM, first compound 10 µM) of the same compound?
A: 87.5%

Q: And the viability, T/C [3]?
A: 84.4%

Q: What about the viability, T/C [4] of the same compound?
A: 105%

Q: What about the viability, T/C (second compound 0.1 µM, first compound 0.316 µM) of the same compound?
A: 94.9%

Q: And the viability, T/C (second compound 0.1 µM, first compound 1 µM)?
A: 96.6%

Q: What about the viability, T/C (second compound 0.1 µM, first compound 3.16 µM) of the same compound?
A: 102%

Q: What about the viability, T/C (second compound 0.1 µM, first compound 10 µM) of the same compound?
A: 95%

Q: What about the viability, T/C [5] of the same compound?
A: 94%

Q: And the viability, T/C [6]?
A: 95.5%

Q: And the viability, T/C (second compound 0.316 µM, first compound 0.316 µM)?
A: 92.6%

Q: And the viability, T/C (second compound 0.316 µM, first compound 1 µM)?
A: 82.4%

Q: And the viability, T/C (second compound 0.316 µM, first compound 3.16 µM)?
A: 83.7%

Q: And the viability, T/C (second compound 0.316 µM, first compound 10 µM)?
A: 65.1%

Q: And the viability, T/C [7]?
A: 79.9%

Q: What about the viability, T/C [8] of the same compound?
A: 88.1%

Q: And the viability, T/C (second compound 1 µM, first compound 0.316 µM)?
A: 78.3%

Q: And the viability, T/C (second compound 1 µM, first compound 1 µM)?
A: 81%

Q: And the viability, T/C (second compound 1 µM, first compound 3.16 µM)?
A: 81.1%

Q: And the viability, T/C (second compound 1 µM, first compound 10 µM)?
A: 75.5%

Q: What about the viability, T/C [9] of the same compound?
A: 61.5%

Q: What about the viability, T/C [10] of the same compound?
A: 73.6%

Q: And the viability, T/C (second compound 3.16 µM, first compound 0.316 µM)?
A: 66.9%

Q: What about the viability, T/C (second compound 3.16 µM, first compound 1 µM) of the same compound?
A: 87%

Q: What about the viability, T/C (second compound 3.16 µM, first compound 3.16 µM) of the same compound?
A: 63%

Q: What about the viability, T/C (second compound 3.16 µM, first compound 10 µM) of the same compound?
A: 53.2%

Q: What about the viability, T/C [11] of the same compound?
A: 43.3%

Q: And the viability, T/C [12]?
A: 39.6%

Q: And the viability, T/C (second compound 10 µM, first compound 0.316 µM)?
A: 43.9%

Q: What about the viability, T/C (second compound 10 µM, first compound 1 µM) of the same compound?
A: 47%

Q: What about the viability, T/C (second compound 10 µM, first compound 3.16 µM) of the same compound?
A: 50.6%

Q: What about the viability, T/C (second compound 10 µM, first compound 10 µM) of the same compound?
A: 39.3%

Q: For `CC(C)n1nc(-c2ccc3oc(N)nc3c2)c2c(N)ncnc21` + C#Cc1c(F)ccc2cc(O)cc(-c3ncc4c(N5CC6CCC(C5)N6)nc(OCC56CCCN5CC(F)C6)nc4c3F)c12, which IC50 (second compound 0.0316 µM) is on record?
A: > 100 nM

Q: And the IC50 (second compound 0.1 µM)?
A: > 100 nM

Q: What about the IC50 (second compound 0.316 µM) of the same compound?
A: 20.5 nM

Q: And the IC50 (second compound 1 µM)?
A: 13.1 nM

Q: And the IC50 (second compound 3.16 µM)?
A: 3.09 nM

Q: And the IC50 (second compound 10 µM)?
A: < 0.316 nM

Q: What about the viability, T/C (second compound 0.0316 µM, first compound 0.000316 µM) of the same compound?
A: 96%

Q: And the viability, T/C (second compound 0.0316 µM, first compound 0.001 µM)?
A: 87.6%

Q: And the viability, T/C (second compound 0.0316 µM, first compound 0.00316 µM)?
A: 91.9%

Q: And the viability, T/C (second compound 0.0316 µM, first compound 0.01 µM)?
A: 78.7%

Q: And the viability, T/C [1]?
A: 50.2%

Q: What about the viability, T/C [2] of the same compound?
A: 53.2%

Q: What about the viability, T/C (second compound 0.1 µM, first compound 0.000316 µM) of the same compound?
A: 104%

Q: What about the viability, T/C (second compound 0.1 µM, first compound 0.001 µM) of the same compound?
A: 98%

Q: What about the viability, T/C (second compound 0.1 µM, first compound 0.00316 µM) of the same compound?
A: 86.3%

Q: What about the viability, T/C (second compound 0.1 µM, first compound 0.01 µM) of the same compound?
A: 68%

Q: What about the viability, T/C [3] of the same compound?
A: 66.6%

Q: What about the viability, T/C [4] of the same compound?
A: 48.7%

Q: And the viability, T/C (second compound 0.316 µM, first compound 0.000316 µM)?
A: 91.9%

Q: What about the viability, T/C (second compound 0.316 µM, first compound 0.001 µM) of the same compound?
A: 94.5%

Q: What about the viability, T/C (second compound 0.316 µM, first compound 0.00316 µM) of the same compound?
A: 85.6%

Q: And the viability, T/C (second compound 0.316 µM, first compound 0.01 µM)?
A: 62.5%

Q: What about the viability, T/C [5] of the same compound?
A: 41.1%

Q: What about the viability, T/C [6] of the same compound?
A: 41.5%

Q: What about the viability, T/C (second compound 1 µM, first compound 0.000316 µM) of the same compound?
A: 80.4%

Q: What about the viability, T/C (second compound 1 µM, first compound 0.001 µM) of the same compound?
A: 86.2%

Q: What about the viability, T/C (second compound 1 µM, first compound 0.00316 µM) of the same compound?
A: 78.2%

Q: And the viability, T/C (second compound 1 µM, first compound 0.01 µM)?
A: 51.9%

Q: And the viability, T/C [7]?
A: 45.9%

Q: What about the viability, T/C [8] of the same compound?
A: 38.4%

Q: What about the viability, T/C (second compound 3.16 µM, first compound 0.000316 µM) of the same compound?
A: 74.2%

Q: What about the viability, T/C (second compound 3.16 µM, first compound 0.001 µM) of the same compound?
A: 55.2%

Q: What about the viability, T/C (second compound 3.16 µM, first compound 0.00316 µM) of the same compound?
A: 57.4%

Q: And the viability, T/C (second compound 3.16 µM, first compound 0.01 µM)?
A: 35.3%

Q: And the viability, T/C [9]?
A: 33.6%

Q: And the viability, T/C [10]?
A: 26.1%

Q: What about the viability, T/C (second compound 10 µM, first compound 0.000316 µM) of the same compound?
A: 42.9%

Q: What about the viability, T/C (second compound 10 µM, first compound 0.001 µM) of the same compound?
A: 42.5%

Q: And the viability, T/C (second compound 10 µM, first compound 0.00316 µM)?
A: 34%

Q: And the viability, T/C (second compound 10 µM, first compound 0.01 µM)?
A: 25.5%

Q: And the viability, T/C [11]?
A: 20.1%

Q: What about the viability, T/C [12] of the same compound?
A: 18.3%
